# Read-outs that look alike come from different tables or passages of the source.
# Biological target: T1, IRAK4 (Homo sapiens, UniProt Q9NWZ3)
# T1 sequence (Q9NWZ3 1-460): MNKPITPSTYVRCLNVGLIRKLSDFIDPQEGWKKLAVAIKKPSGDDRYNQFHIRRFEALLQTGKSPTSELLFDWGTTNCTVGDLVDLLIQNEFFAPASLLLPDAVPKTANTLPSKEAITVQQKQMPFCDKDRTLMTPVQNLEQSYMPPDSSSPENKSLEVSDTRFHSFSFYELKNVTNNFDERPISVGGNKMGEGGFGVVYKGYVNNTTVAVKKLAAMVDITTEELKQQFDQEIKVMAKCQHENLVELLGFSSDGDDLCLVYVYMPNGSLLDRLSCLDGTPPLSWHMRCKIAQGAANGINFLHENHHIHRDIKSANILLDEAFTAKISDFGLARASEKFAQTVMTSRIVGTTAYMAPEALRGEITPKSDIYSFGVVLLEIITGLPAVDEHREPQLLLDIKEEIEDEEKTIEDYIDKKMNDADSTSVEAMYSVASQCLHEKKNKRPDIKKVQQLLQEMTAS
# Assay: biochemical
# [1] = IRAK4 Biochemical Assay (1 mM ATP, 2 h) IC50 (μM), 1 mM ATP, 2 h, 100 pM IRAK4
Structure (SMILES),IC50 [µM],IC50 [1] [µM]
CCc1cccc(NC(=O)c2cn3cc(C4CCOCC4)nc3c(OC)n2)n1 [Example 86],0.034,
COc1nc(C(=O)Nc2ccn(C(F)F)n2)cn2cc(C3CCOCC3)nc12 [Example 87],0.0329,
COc1nc(C(=O)Nc2ccn(C)n2)cn2cc(C3CCOCC3)nc12 [Example 88],0.0509,
CCOc1cc2nc(C3CN(CC(F)F)C3)cn2cc1C(=O)Nc1cccc(C(F)F)n1 [Example 90],,0.0015
"CC(C)Oc1cc2nc(C3CCOCC3)cn2cc1C(=O)Nc1cccc(C(F)F)n1 [Example 92, N-(6-(difluoromethyl)pyridin-2-yl)-7-isopropoxy-2-(tetrahydro-2H-pyran-4-yl)imidazo[1,2-a]pyridine-6-carboxamide]",,0.0003
"CCOc1cc2nc(C(F)F)cn2cc1C(=O)Nc1cccc(C(F)F)n1 [Example 95, 2-(Difluoromethyl)-N-(6-(difluoromethyl)pyridin-2-yl)-7-ethoxyimidazo[1,2-a]pyridine-6-carboxamide]",0.0005,
"CC(C)Oc1cc2nc(C34COC(C)(C3)C4)cn2cc1C(=O)Nc1cccc(C(F)F)n1 [Example 96, N-(6-(difluoromethyl)pyridin-2-yl)-7-isopropoxy-2-(1-methyl-2-oxabicyclo[2.1.1]hexan-4-yl)imidazo[1,2-a]pyridine-6-carboxamide]",,0.0002
"COc1cccc(NC(=O)c2cn3cc(C45COC(C)(C4)C5)nc3cc2OC(C)C)n1 [Example 97, 7-Isopropoxy-N-(6-methoxypyridin-2-yl)-2-(1-methyl-2-oxabicyclo[2.1.1]hexan-4-yl)imidazo[1,2-a]pyridine-6-carboxamide]",,0.0003
"CC(C)Oc1cc2nc(C(C)(F)F)cn2cc1C(=O)Nc1cccc(C(F)F)n1 [Example 98, 2-(1,1-Difluoroethyl)-N-(6-(difluoromethyl)pyridin-2-yl)-7-isopropoxyimidazo[1,2-a]pyridine-6-carboxamide]",,0.0038
CC(C)Oc1cc2nc(C(F)F)cn2cc1C(=O)Nc1cccc(C(F)F)n1 [Example 99],0.0073,
COc1cccc(NC(=O)c2cn3cc(C(F)F)nc3cc2OC(C)C)n1 [Example 100],0.0178,
COc1cc2nc(C3CCOCC3)cn2cc1C(=O)Nc1csnc1C [Example 108],0.0669,
COc1cc2nc(C3CCOCC3)cn2cc1C(=O)Nc1cccc(C)c1F [Example 110],0.0082,
COc1cc2nc(C3CCOCC3)cn2cc1C(=O)Nc1cccc(F)c1F [Example 113],0.0357,
COc1cc2nc(C3CCOCC3)cn2cc1C(=O)Nc1cccc(Cl)c1F [Example 114],0.0153,
COc1cc2nc(C3CCOCC3)cn2cc1C(=O)Nc1ccc(C)n(C)c1=O [Example 182],0.559,

Structure (SMILES),IC50 [µM],IC50 [1] [µM]
COc1cc2nc(C3CCOCC3)cn2cc1C(=O)Nc1cccn(C)c1=O [Example 183],0.0069,
COc1cc2nc(C3CCOCC3)cn2cc1C(=O)Nc1ccn(CC2CC2)n1 [Example 184],0.208,
COc1cc2nc(C3CCOCC3)cn2cc1C(=O)Nc1cnn(C)c1C1CC1 [Example 186],0.312,
COc1cc2nc(C3CCOCC3)cn2cc1C(=O)Nc1cccnc1C(C)C [Example 187],0.148,
COc1cc2nc(C3CCOCC3)cn2cc1C(=O)Nc1ccn(CCF)n1 [Example 190],0.111,
COc1cc2nc(C3CCOCC3)cn2cc1C(=O)Nc1cccn(C(C)C)c1=O [Example 192],0.0429,
COc1cc2nc(C3CCOCC3)cn2cc1C(=O)Nc1cccnc1OC [Example 193],0.0027,
COc1cc2nc(C3CCOCC3)cn2cc1C(=O)Nc1cnn(C)c1C [Example 194],0.624,
COc1cnccc1NC(=O)c1cn2cc(C3CCOCC3)nc2cc1OC [Example 195],0.123,
COc1cc2nc(C3CCOCC3)cn2cc1C(=O)Nc1cccnc1OCC(F)F [Example 196],0.0091,
COc1cc2nc(C3CCOCC3)cn2cc1C(=O)Nc1ccn(C2CC2(F)F)n1 (stereo not shown) [Example 197],0.166,
COc1cc2nc(C3CCOCC3)cn2cc1C(=O)Nc1cccn(CC(F)(F)F)c1=O [Example 198],0.0759,
CCc1c(NC(=O)c2cn3cc(C4CCOCC4)nc3cc2OC)cnn1C [Example 199],0.181,
COc1cc2nc(C3CCOCC3)cn2cc1C(=O)Nc1cccnc1OC(C)C [Example 200],0.0115,
"COc1cc2nc(C3CCOCC3)cn2cc1C(=O)Nc1ncnc2cccnc12 [Example 204, 7-Methoxy-N-(pyrido[3,2-d]pyrimidin-4-yl)-2-(tetrahydro-2H-pyran-4-yl)imidazo[1,2-a]pyridine-6-carboxamide]",0.429,

# The remaining molecules from weak to strong by IC50, led by results:
IC50 [µM],Structure (SMILES),IC50 [1] [µM]
5.69,COc1nc(C(=O)Nc2ccnn2C)cn2cc(C3CCOCC3)nc12 [Example 89],
0.514,COc1ccc(Cl)cc1NC(=O)c1cn2cc(C3CCOCC3)nc2cc1OC [Example 112],
0.378,COc1cc2nc(C3CCOCC3)cn2cc1C(=O)Nc1ccnc(C)c1OC [Example 201],
0.326,COc1cc2nc(C3CCOCC3)cn2cc1C(=O)Nc1ccc(O)nc1OC [Example 188],
0.27,COc1cc2nc(C3CCOCC3)cn2cc1C(=O)Nc1ccn(C2CCCC2)n1 [Example 191],
0.114,COc1cc2nc(C3CCOCC3)cn2cc1C(=O)Nc1ccc(F)cc1OC(C)C [Example 109],
0.0476,CCc1ncsc1NC(=O)c1cn2cc(C3CCOCC3)nc2cc1OC [Example 104],
0.0434,CCn1cccc(NC(=O)c2cn3cc(C4CCOCC4)nc3cc2OC)c1=O [Example 185],
0.0198,COc1cc2nc(C3CCOCC3)cn2cc1C(=O)Nc1cscc1Cl [Example 111],
0.0178,"COc1cccc(NC(=O)c2cn3cc(C4CC5CCC(C4)O5)nc3cc2OC(C)C)n1 (stereo not shown) [Example 94, 2-(8-oxabicyclo[3.2.1]octan-3-yl)-7-isopropoxy-N-(6-methoxypyridin-2-yl)imidazo[1,2-a]pyridine-6-carboxamide]",
0.0175,COc1cccc(NC(=O)c2cn3cc(C(C)(F)F)nc3cc2OC(C)C)n1 [Example 101],
0.0165,COc1cc2nc(C3CCOCC3)cn2cc1C(=O)Nc1cccnc1O [Example 189],
0.0137,COc1cc2nc(C3CCOCC3)cn2cc1C(=O)Nc1cccc(CO)n1 [Example 202],
0.0106,COc1cc2nc(C3CCOCC3)cn2cc1C(=O)Nc1cccc(C)n1 [Example 116],
0.0061,COc1cc2nc(C3CCOCC3)cn2cc1C(=O)Nc1cccc(C)c1Cl [Example 115],
0.0032,"COCCCc1cn2cc(C(=O)Nc3cccc(OC)n3)c(OC(C)C)cc2n1 [Example 103, 7-Isopropoxy-2-(3-methoxypropyl)-N-(6-methoxypyridin-2-yl)imidazo[1,2-a]pyridine-6-carboxamide]",
0.0004,"COCCCc1cn2cc(C(=O)Nc3cccc(C(F)F)n3)c(OC(C)C)cc2n1 [Example 102, N-(6-(difluoromethyl)pyridin-2-yl)-7-isopropoxy-2-(3-methoxypropyl)imidazo[1,2-a]pyridine-6-carboxamide]",
0.0002,"COc1cccc(NC(=O)c2cn3cc(C4CCOCC4)nc3cc2OC(C)C)n1 [Example 93, 7-isopropoxy-N-(6-methoxypyridin-2-yl)-2-(tetrahydro-2H-pyran-4-yl)imidazo[1,2-a]pyridine-6-carboxamide]",

# Source: patent US20230087118A1, “IMIDAZO[1,2-a][sequence] DERIVATIVES AND THEIR USE IN THE TREATMENT OF DISEASE” (priority 2019, published 2023)
